# Experimental data taken from PMC8876855, “AsKC11, a Kunitz Peptide from Anemonia sulcata, Is a Novel Activator of G Protein-Coupled Inward-Rectifier Potassium Channels” (Marine Drugs, 2022).
# Bridges are numbered along the chain shown (N, C = ends). Where no end group is shown, it is not given here.
# T1: mGIRK1/2 (Mus musculus, UniProt P48542+P63250)
# T1 construct: expressed in transfected cells; host or cells: Xenopus laevis oocytes injected with cRNA
# T1 sequence (P63250 1-501): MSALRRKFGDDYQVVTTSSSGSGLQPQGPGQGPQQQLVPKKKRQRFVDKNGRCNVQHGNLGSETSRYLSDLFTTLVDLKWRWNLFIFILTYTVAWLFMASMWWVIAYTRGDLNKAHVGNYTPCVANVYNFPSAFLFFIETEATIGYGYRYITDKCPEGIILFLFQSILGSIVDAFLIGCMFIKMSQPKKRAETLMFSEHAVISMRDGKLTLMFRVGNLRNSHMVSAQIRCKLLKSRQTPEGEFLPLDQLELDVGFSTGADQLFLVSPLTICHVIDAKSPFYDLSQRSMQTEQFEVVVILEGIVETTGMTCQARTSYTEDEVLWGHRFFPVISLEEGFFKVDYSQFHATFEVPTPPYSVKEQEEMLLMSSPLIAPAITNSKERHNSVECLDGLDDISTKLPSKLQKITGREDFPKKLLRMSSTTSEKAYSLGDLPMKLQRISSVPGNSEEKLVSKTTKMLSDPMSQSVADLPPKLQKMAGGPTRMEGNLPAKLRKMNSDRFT
# T1 sequence (P48542 1-425): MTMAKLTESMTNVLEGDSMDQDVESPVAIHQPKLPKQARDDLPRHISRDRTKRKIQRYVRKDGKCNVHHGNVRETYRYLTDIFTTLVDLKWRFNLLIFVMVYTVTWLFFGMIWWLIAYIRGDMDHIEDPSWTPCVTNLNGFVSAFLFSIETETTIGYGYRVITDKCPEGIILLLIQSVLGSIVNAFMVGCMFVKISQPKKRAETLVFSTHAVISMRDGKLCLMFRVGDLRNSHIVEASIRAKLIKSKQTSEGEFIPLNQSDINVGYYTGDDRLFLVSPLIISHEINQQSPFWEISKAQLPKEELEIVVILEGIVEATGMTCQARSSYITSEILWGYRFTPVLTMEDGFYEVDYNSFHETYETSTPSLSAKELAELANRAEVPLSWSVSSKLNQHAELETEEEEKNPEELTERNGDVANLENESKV
# T2: GIRK1/2 channel (Mus musculus, UniProt P63250)
# T2 chain 1: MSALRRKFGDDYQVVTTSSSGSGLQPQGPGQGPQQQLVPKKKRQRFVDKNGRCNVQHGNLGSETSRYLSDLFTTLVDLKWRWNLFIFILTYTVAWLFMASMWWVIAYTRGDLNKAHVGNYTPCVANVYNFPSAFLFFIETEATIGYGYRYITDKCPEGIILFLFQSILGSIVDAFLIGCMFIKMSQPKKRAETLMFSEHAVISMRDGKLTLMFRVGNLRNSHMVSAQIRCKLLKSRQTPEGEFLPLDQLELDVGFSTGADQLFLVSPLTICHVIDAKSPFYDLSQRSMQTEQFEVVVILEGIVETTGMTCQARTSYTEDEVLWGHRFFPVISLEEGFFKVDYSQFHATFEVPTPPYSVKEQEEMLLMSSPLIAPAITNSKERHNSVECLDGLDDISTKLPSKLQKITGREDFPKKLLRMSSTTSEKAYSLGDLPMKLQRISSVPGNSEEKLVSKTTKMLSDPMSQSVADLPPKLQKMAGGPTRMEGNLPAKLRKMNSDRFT
# T2 chain 2: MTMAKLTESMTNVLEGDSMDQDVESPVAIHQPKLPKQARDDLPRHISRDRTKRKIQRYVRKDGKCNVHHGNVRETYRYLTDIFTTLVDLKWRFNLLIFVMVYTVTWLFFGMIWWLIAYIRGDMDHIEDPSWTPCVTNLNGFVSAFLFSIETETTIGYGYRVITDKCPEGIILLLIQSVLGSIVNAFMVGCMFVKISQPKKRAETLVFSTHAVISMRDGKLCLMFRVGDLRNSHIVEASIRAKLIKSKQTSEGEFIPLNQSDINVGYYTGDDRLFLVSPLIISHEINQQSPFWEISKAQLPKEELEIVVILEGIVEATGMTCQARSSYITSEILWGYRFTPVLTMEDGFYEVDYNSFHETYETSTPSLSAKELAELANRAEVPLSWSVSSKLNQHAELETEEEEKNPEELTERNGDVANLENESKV
# Legend:
# GIRK channels = details: ref [3],[38],[46]; cited from earlier work
# Source text: (§1) To better understand the potential of activating neuronal GIRK1/2 channels for therapeutic intervention, selective and potent activators have been developed for GIRK channels. […] These activators are weak and nonspecific since they exert effects in the millimolar range and target several types of ion channels at the same range of concentrations. Thus, early investigation of the pathological and physiological relevance of GIRK channels was hampered partly by the lack of potent and selective probes. ...
# GIRK1/2 channels = details: cited from earlier work
# Source text: as §1
# [1] = cited from earlier work
# Source text: To better understand the potential of activating neuronal GIRK1/2 channels for therapeutic intervention, selective and potent activators have been developed for GIRK channels. […] Howeve ...
# GIRK2 channel = details: ref [2],[16]; cited from earlier work
# Source text: These activators are weak and nonspecific since they exert effects in the millimolar range and target several types of ion channels at the same range of concentrations. Thus, early investigation of the pathological and physiological relevance of GIRK channels was hampered partly by the lack of potent and selective probes. ...
# mGIRK1/2 [2] = target: T1, mGIRK1/2; test: Kinetics and affinity of AsKC11 on GIRK1/2 channels (wash-in/wash-out, bimolecular scheme); assay type: cell-based
# Source text: As shown in the abovementioned results, AsKC11 binding was reversible. We next explored whether the AsKC11-elicited activation of GIRK1/2 channels followed a kinetic behavior of a simple bimolecular reaction. The current activation upon AsKC11 application and recovery upon AsKC11 removal followed a single exponential time course compatible with a bimolecular reaction scheme (See Section 4).
# For the expression of potassium channels (hKV1.1, hKV1.2, hKV1.3, rKV1.4, rKV1.6, and mGIRK1/2, mGIRK2 alone, or IRK1) in Xenopus oocytes, the linearized plasmids were transcribed using the T3, T7, or SP6 mMESSAGEmMACHINE transcription kit (Ambion, Austin, TX, USA). Following the cRNA injection into oocytes and 1–4 days of incubation at 16 °C, electrophysiological experiments were conducted using the two-electrode voltage-clamp (TEVC) GeneClamp 500B (Axon Instruments, San Jose, CA, USA). Electrodes were fabricated from borosilicate glass tubes (1.14 mm outside diameter, 0.7 mm inside diameter) by a programmable microelectrode puller, PUL-1 (World Precision Instruments, Sarasota, FL, USA). Electrodes were filled with 3 M KCl and had tip resistances from 0.8 to 1.5 MΩ. […]
# mGIRK1/2 [3] = target: T1, mGIRK1/2; test: TEVC, K+ current enhancement through GIRK1/2 expressed in Xenopus oocytes; assay type: cell-based; details: 48 μM AsKC11; heterotetrameric GIRK1/2 in oocytes; mean ± SD, n = 4; data not shown
# Source text: To identify the novel activator of GIRK1/2 channels, we first tested the effects of venom fractions previously purified from the venom of Anemonia sulcata on whole-cell currents in oocytes expressing GIRK1/2 channels. […] The oocytes coinjected with GIRK1/2 cRNA were voltage-clamped at −90 mV. To increase the GIRK current at the negative potential, a high-potassium extracellular buffer (HK) was used, which allowed for more obvious currents and accurate measurement. Thus, after exchanging ND96 to HK, basal K^+ currents (IK,basal) were observed and were carried by GIRK1/2 channels (Figure 1a).
# The potency of AsKC11 to enhance inward K^+ currents through GIRK1/2 channels was studied by applying increasing concentrations of AsKC11 (2.4, 12, 24, and 48 µM) to oocytes expressing GIRK1/2 channels. These oocytes were subjected to a 1-s voltage ramp protocol from −150 to +60 mV from a holding potential of −20 mV.
# All procedures for the use and handling of adult female Xenopus laevis frogs (CRB Xénopes, Rennes, France) were approved by the Animal Ethics Committee of the KU Leuven (Project No. P186/2019) following regulations of the European Union (EU) concerning the welfare of laboratory animals, as declared in Directive 2010/63/EU. […] After recovery from anesthesia, frogs were returned to their tanks in the Aquatic Facility of KU Leuven and were monitored daily. […]
# GIRK1/2 channel = target: T2, GIRK1/2 channel; test: two-electrode voltage clamp kinetics (koff/kon) in Xenopus oocytes
molecule,measurement,setting,value
CCO [ethanol],potency for activating GIRK channels,GIRK channels,very low potency
C[C@@H]1O[C@@H](O[C@H]2[C@H](Oc3cc(O)c4c(c3)O[C@H](c3ccc(O)cc3)CC4=O)O[C@H](CO)[C@@H](O)[C@@H]2O)[C@H](O)[C@H](O)[C@H]1O [naringin],potency for activating GIRK channels,GIRK channels,very low potency
Cc1cc(NC(=O)Nc2ccc(F)c(F)c2)n(-c2ccccc2)n1 [ML297],affinity of activity on GIRK1/2,"GIRK1/2 channels; ref [2],[5],[16]",nanomolar range
same,requirement for GIRK1/2 activation,GIRK1/2 channels; ref [2],"required the presence of the membrane phospholipid phosphatidylinositol 4,5-bisphosphate instead of Gi/o"
same,effects in animal models,"[1]; ref [2],[16]",antiepileptic and anxiolytic effects in animal models
same,pharmacokinetic properties,[1]; ref [2],suboptimal
same,effect on GIRK2 channel,GIRK2 channel,not affect the GIRK2 channel
"INKDCLLPKVVGFCRARFPRYYYNSSSRRCEKFIYGGCGGNANNFSSYYECHIKCFGPR (disulfide 5-55, 14-38, 30-51) [AsKC11]",koff,"mGIRK1/2 [2]; 48 μM AsKC11, wash-out, read-out: first-order dissociation rate constant (koff = β)",0.00633 s⁻¹
same,kon,"mGIRK1/2 [2]; 48 μM AsKC11, read-out: second-order association rate constant (α)",78.2 M⁻¹ s⁻¹
same,"enhancement in inward K+ currents, GIRK1/2",mGIRK1/2 [3],74.1 ± 12.5%
AsKC11 (protein) INKDCLLPKVVGFCRARFPRYYYNSSSRRCEKFIYGGCGGNANNFSSYYECHIKCFGPR,Kd,GIRK1/2 channel,80.9 µM
